One may read the IC50 as the concentration that inhibits the measured activity by half.

The test system of this assay is Proteasome. The assay is described as follows: Concentration required for reversal inhibition of 20S-proteasome. In kind it is subcellular.
With `CC[C@H](NC(=O)[C@H](CC1CCCCC1)N1CC[C@](NC(=O)OCc2ccccc2)(C(C)C)C1=O)B(O)O`, the half-inhibitory concentration (IC50) is 30 nM.

For the compound `CC[C@H](NC(=O)[C@H](C)N1CC[C@](NC(=O)OCc2ccccc2)(C(C)C)C1=O)B(O)O`, the 50% inhibitory concentration (IC50) worked out at 1000 nM.

With `Cc1cccc(S(=O)(=O)N[C@]2(C(C)C)CCN([C@@H](CC3CCCCC3)C(=O)N[C@H](B(O)O)C(C)C)C2=O)c1`, the IC50 is 28 nM.

With `CC[C@H](NC(=O)[C@H](Cc1ccccc1)N1CC[C@](NC(=O)OCc2ccccc2)(C(C)C)C1=O)B(O)O`, the half-inhibitory concentration (IC50) was 30 nM.

As for `CC[C@H](NC(=O)[C@H](CC1CCCCC1)N1CC[C@](NS(=O)(=O)c2cccc(C)c2)(C(C)C)C1=O)B(O)O`, the half-maximal inhibitory concentration (IC50) came out at 30 nM.

Regarding `Cc1cccc(S(=O)(=O)N[C@]2(C(C)C)CCN([C@@H](CC3CCCCC3)C(=O)N[C@@H](CC(C)C)B(O)O)C2=O)c1`, the half-inhibitory concentration (IC50) was 8 nM.

Source of the values: ChEMBL document CHEMBL1137836, “Identification of a potent and rapidly reversible inhibitor of the 20S-proteasome” (Bioorg Med Chem Lett, 2004).
